Measurements reported in paper PMC5746060, “General and Modular Strategy for Designing Potent, Selective, and Pharmacologically Compliant Inhibitors of Rhomboid Proteases” (Cell Chemical Biology, 2017).
Starred links: 1 amine or outer side, 2 acyl side, 3 side chain; linkers in the order of their positions; H or OH if unused. Non-standard residues stand in square brackets, D forms with d. Residues, ends and D or L forms follow the SMILES beside them. *: point of attachment. NH(4-phenylbutyl) = c1ccc(CCCCN*)cc1; X1 = C[C@H](N[*:1])C(=O)C(=O)[*:2]; NHPhenethyl = c1ccc(CCN*)cc1

Target: T1, Escherichia coli rhomboid GlpG (Escherichia coli, UniProt P09391)
T1 construct: made in house; host or cells: E. coli C41(DE3)
T1 sequence (P09391 whole entry): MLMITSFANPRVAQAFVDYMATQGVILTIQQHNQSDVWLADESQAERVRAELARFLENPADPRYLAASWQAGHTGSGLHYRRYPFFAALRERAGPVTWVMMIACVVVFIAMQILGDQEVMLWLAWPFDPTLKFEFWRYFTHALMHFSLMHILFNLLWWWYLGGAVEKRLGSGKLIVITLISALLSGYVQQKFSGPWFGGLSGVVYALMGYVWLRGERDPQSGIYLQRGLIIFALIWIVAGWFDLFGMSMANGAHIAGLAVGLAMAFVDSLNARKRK
Experiment: in vitro GlpG inhibition assay with fluorogenic transmembrane peptide substrate (apparent IC50)
Assay type: biochemical
Description: To gain insight into these preferences and their possible interactions, we have generated tetra- and pentapeptidyl chloromethylketones (CMK or cmk henceforth) harboring amino acids preferred in positions P5 to P1 by the Escherichia coli rhomboid GlpG (GlpG henceforth), using the sequence background of the Providencia TatA ([Stevenson et al., 2007]), represented by the parent compound Ac-IATA-cmk. We measured the inhibitory properties of this series of compounds using a newly developed in vitro assay employing a fluorogenic transmembrane peptide substrate ([Ticha et al., 2017]) that faithfully represents a native rhomboid substrate.
Figure 1 The Potency of Substrate-Derived Inhibitors Can be Improved by Modifying the Amino acid Sequence of the P5 to P1 Region (A) The parent inhibitor Ac-IATA-cmk was modified by introducing strongly preferred amino acids ([Zoll et al., 2014]) into the P4, P3, P2, and P5 positions to yield the listed compounds. Their apparent IC50 values were measured with 1 hr preincubation using 10 μM fluorogenic substrate KSp35 and 0.05% (w/v) DDM. The reported values are best-fit means with SD representative of 2–3 measurements. (B) The sequence-optimized peptidyl chloromethylketones were soaked into the native crystals of GlpG and structures of the complexes were solved by X-ray diffraction (for statistics, see Table S1). […] Note that in the Ac-RVRHA-cmk structure (right), the side chain of the Arg residue in the P5 position of the inhibitor has not been modeled due to poor or missing electron density peaks. (C) Interactions of RVRHA-cmk with GlpG were analyzed by Ligplot+ ([Laskowski and Swindells, 2011]). Ligands are shown as thick sticks with carbons in green, proteins as thin sticks with carbons in gray, hydrogen bonds as yellow dashed lines, and amino acids involved in van der Waals contacts are highlighted as transparent surfaces. The inhibitor forms covalent bonds with S201 and H254 via the chloromethylketone warhead, and it hydrogen bonds with the backbone of residues 196–198 from the L3 loop and residues 248–250 from the L5 loop. van der Waals contacts with the inhibitor are formed by the residues from the L3 loop of GlpG, by S193 and Q189 from TMD3, and by F146 and M120 from the L1 loop that pack against the Val side chain of the P4 position of the inhibitor, as observed previously ([Zoll et al., 2014]). (D) The conformations of peptide inhibitors bound to the active site of GlpG were compared by performing structural alignment of the complexes of VRHAcmk (PDB: 5MT7), RVRHAcmk (PDB: 5MT8), IATAcmk (PDB: 4QO2), and VRMAcho (PDB: 5F5B) in PyMOL ([Schrodinger, 2012]). […] The backbone of the ligands in all complexes has virtually identical conformation with the exception of the distortion of the oxyanion by the chloromethylketone, and the biggest differences are found in the conformation of the P2 side chain, which is not surprising, because almost any side chain can be accommodated in this position ([Zoll et al., 2014]). TEXT PRINTED IN THE PICTURE: (A) AcIATAcmk: IC50 (μM): 213 | (A) AcVATAcmk: IC50 (μM): 450 | (A) AcIAHAcmk: IC50 (μM): 200 | (A) AcIRTAcmk: IC50 (μM): 84 | (A) AcVRHAcmk: IC50 (μM): 27 | (A) AcRVRHAcmk: IC50 (μM): 8
Figure 2 A Screen of Electrophilic Warheads for the Inhibition of Rhomboid Proteases The optimized parent sequence Ac-RVRHA was linked to electrophilic warheads commonly used for targeting serine proteases (reviewed in [Hedstrom, 2002], [Walker and Lynas, 2001]). The apparent IC50 values of the compounds were measured in 0.05% DDM using 10 μM substrate KSp35 ([Ticha et al., 2017]) with 1 hr preincubation. Given are the mean values of 2–3 measurements. […]

Row | Structure (SMILES) | IC50 (1 hr preincubation, 10 μM fluorogenic substrate KSp35, 0.05% (w/v) DDM) | fold lower IC50 than the parent compound 1 (ratio of apparent IC50 values)
1 | CC(=O)N[C@@H](CCCNC(=N)N)C(=O)N[C@H](C(=O)N[C@@H](CCCNC(=N)N)C(=O)N[C@@H](Cc1c[nH]cn1)C(=O)N[C@@H](C)C(=O)C(=O)NCCc1ccccc1)C(C)C [compound 9, Ac-RVRHA-CONH-phenylethyl] (Ac-RVRH[X1]-NHPhenethyl) | 440 nM | 
2 | CC(=O)N[C@@H](CCCNC(=N)N)C(=O)N[C@H](C(=O)N[C@@H](CCCNC(=N)N)C(=O)N[C@@H](Cc1c[nH]cn1)C(=O)N[C@@H](C)C(=O)C(=O)NCCCCc1ccccc1)C(C)C [compound 11, Ac-RVRHA-CONH-phenylbutyl] (Ac-RVRH[X1]-{NH(4-phenylbutyl)}) |  | about 1,000 fold
